Earlier results on 1 compound are cited in patent publication US8133904B2, “Cannabinoid receptor antagonists/inverse agonists useful for treating obesity” (Jenrin Discovery, Inc., priority 2007, dated 2012).

Molecules are shown by their SMILES.

The conditions of this series: patients with type 2 diabetes not treated with other anti-diabetic medications; after six months of treatment; baseline value 7.9.

For the compound `Cc1c(C(=O)NN2CCCCC2)nn(-c2ccc(Cl)cc2Cl)c1-c1ccc(Cl)cc1` [rimonabant], the HbA1c levels lowered is recorded as 0.8%.
